Key:
[1] = tested on: human prostate cancer cells PC-3; assay: MTS assay, growth inhibitory effect on PC-3 cells; format: cell-based; conditions: 72 hours
Description: Cell proliferation was monitored on PC-3 cells using the MTS/PMS (phenazine methosulfate) kit (Promega), which primarily measures mitochondrial activity of live cells. The basic principle of this method involves the fact that the mitochondrial enzymes of the live cells metabolize the MTS/PMS dyes forming a brown colored precipitate which can be measured as optical density (OD) by absorption at 490 nm in a spectrophotometer. Therefore, the OD values are proportional to the number of living cells. In addition, monitoring of cell morphology was also performed. Cell morphology would be indicative of their health status. For example, viable cells would appear adherent and spread out whereas dead cells would be in suspension in the media and would appear granular and round.
PC-3 cells (ATCC, Lot AT06) used in these experiments were at a passage number lower or equal to 70 (n≧70). Cells were seeded in Costar 96 well cell culture flat bottom plates in RPMI supplemented media containing 50 μg/ml of bovine serum albumin (BSA) and 0.1 μM FeSO4. Peptide was diluted in the same media. Cells were continuously exposed to the polypeptides of the present invention for 72 hours without changing media. Native PSP94 or rHuPSP94 concentrated two fold were directly added to wells and diluted to 1× in order to minimize cell manipulation and avoid detachment.
Native PSP94, rHuPSP94, polypeptide 22-36 and PB111 polypeptide (scrambled polypeptide) were also included in this experiment as controls. Cell proliferation assay was performed on either PC-3 cells or normal fibroblasts (used here as control) using the MTS/PMS kit (Promega). Four thousand cells (FIGS. 9 and 10) or three thousand (FIG. 11) cells were seeded in Costar 96 well cell culture flat bottom plates in RPMI supplemented media containing 50 μg/ml of bovine serum albumin (BSA) and 0.1 μM FeSO4. In addition, monitoring of cell morphology was also performed.
This assay measures the mitochondrial activity of the live cells. The basic principle of this method involves the fact that the mitochondrial enzymes of the live cells metabolize the MTS/PMS dyes forming a brown colored precipitate which can be measured as optical density (OD) by absorption at 490 nm in a spectrophotometer. Therefore, the OD values are proportional to the number of living cells.
In addition, a visual observation of the cells was also done to check the cell morphology, which could also be indicative of cell growth. The following conditions for MTS assay were used: PC-3 (ATCC, Lot AT06), passage number n≧70, cell line adapted to grow in serum-free OPTI-MEM and in RPMI supplemented with BSA (50 μg/ml) and Ferrous Sulfate (0.1 μM), continuous exposure for up to 72 hours without changing media (i.e., adding PCK3145 at 2× concentration directly to wells and diluting it 1:2 to 1× to minimize cell manipulation and avoid detachment).

PC-3 cells [2] = assay: DNA fragmentation assay (DNA ladder, apoptosis); format: cell-based, human; conditions: various concentrations, 72 hours
Description: Cell apoptosis result in DNA fragmentation can be evaluated by the presence of a DNA ladder visualized when DNA is run on a 1.2% agarose gel. DNA ladder assay (apoptosis assay) was performed following exposure of PC-3 to various concentrations of the polypeptides for 72 hours. The polypeptides that were used in this particular experiment are polypeptide 7-21 (SEQ ID NO: 4), polypeptide PCK3145 (SEQ ID NO: 5) and polypeptide 76-94 (SEQ ID NO: 6). […] This effect was especially evident following treatment with PCK3145 (SEQ ID NO: 5), which is illustrated by FIG. 7. Lane 1 of the gel illustrated in FIG. 7 represents a lambda HindIII digest standard.
Apoptosis of PC-3 cells, following a 72 hours exposure to PCK3145 at 500 μg/ml concentration, was evaluated in supplemented media by DNA fragmentation assay. Doxorubicin was used as a reference positive control. Untreated cells and PCK3145-treated cells were harvested and the DNA was isolated. Isolated DNA was run on a 1.2% agarose gel containing Ethidium Bromide (EtBr). […] Lane 1 of the gel illustrated in FIG. 25 represents the DNA marker (100 base pair DNA ladder). Lane 2 of the gel illustrated in FIG. 25 represents a control of untreated PC-3 cells.

PC-3 cells [3] = assay: Apoptosis assay by ELISA plus; format: cell-based, human; conditions: 22.5 μM to 90 μM, 72 hours
Description: The three polypeptides (SEQ ID NO: 4, SEQ ID NO: 5 and SEQ ID NO 6) and native PSP94 used here as a positive control were tested in ELISA plus assay to measure cell death through apoptosis. Briefly, the ELISA plus assay is a sandwich enzyme immunoassay able to measure mono- and oligonucleosomes present in the cytoplasmic fraction of cell lysate using two antibodies, one directed against DNA and the other directed against histones. The apoptotic cell death is characterized by activation of endogenous endonucleases (e.g., calcium- and magnesium-dependant), which cleave double-stranded DNA at the most accessible internucleosomal linker region, generating mono- and oligonucleosomes. The enrichment of mono- and oligonucleosomes in the cytoplasm of the apoptotic cells is due to the fact that DNA degradation occurs several hours before plasma membrane breakdown.
Four thousand cells were seeded in Costar 96 well cell culture flat bottom plates in RPMI supplemented media containing 50 μg/ml of bovine serum albumin (BSA) and 0.1 μM FeSO4. The PC-3 cells were treated with various concentrations (22.5 μM to 90 μM) of polypeptides for 72 hours. Apoptosis assay was done as per manufacturer's instructions using the ApopTag kit (Boeringher Mannheim).

PC-3 cells [4] = assay: clonogenicity assay (colony formation); format: cell-based, human
Description: The synthetic decapeptide (SEQ ID NO: 3) has been shown herein to mimic the biological activity of native PSP94 (nPSP94) (SEQ ID NO: 1) and therefore its effect on the PC-3 cells was studied in clonogenicity assay (colony formation). Cells were seeded in Costar 96 well cell culture flat bottom plates in RPMI supplemented media containing 50 μg/ml of bovine serum albumin (BSA) and 0.1 μM FeSO4. Clonogenicity was evaluated for PC-3 cells grown in the presence of various concentration of the decapeptide after 9 days of culture (FIG. 4a). A parallel experiment was performed with various concentration of nPSP94 using the same experimental conditions (FIG. 4b). Other experiments evaluating clonogenicity was performed with the decapeptide (FIG. 5a) or nPSP94 (FIG. 5b) after 21 days of culture as well as after 10 days of culture (FIG. 6a: Decapeptide and FIG. 6b: nPSP94).

[5] = tested on: PC-3 human prostate tumor; assay: PC-3 human prostate tumor in nude mice, subcutaneous treatment for 14 days (Examples 10 and 11); format: in vivo, Nude mouse; conditions: 10 μg/kg body weight per day s.c.
Description: PC-3 human prostate tumor was obtained from ATCC (ATCC 1435). PC-3 cells were grown in RPMI media containing 10% (v/v) of fetal calf serum and were harvested in the logarithmic phase of growth by trypsinization. Cells were centrifuged at 1200 rotation per minute (rpm) and washed three timed with Hanks balanced salt solution (HBSS). Following washing, cells were counted and adjusted to a concentration of 1×10^7 cells/ml in HBSS. A 0.1 ml volume of tumor cell inoculum containing 1×10^6 cells was administered subcutaneously into the two opposite flank region of each Nude mouse (Nu/Nu, BALE/c background). Tumor growth was monitored for approximately 18 days. Once tumor growth has been established (volume of tumor reached a volume of 50 mm^3) treatment with rHuPSP94 (SEQ ID NO: 2) was initiated and was performed once a day for 14 days by the subcutaneous route. Based on the assigned treatment groups illustrated in table 4.
PC-3 human prostate tumor (ATCC 1435) obtained from ATCC was implanted bilaterally into nude mice and tumor growth was monitored for approximately 18 days. PC-3 cells were injected once subcutaneously into each flank of the mice. Once tumor growth has been established (i.e., volume of tumor reached 0.25 to 0.50 cm^3) the treatment with decapeptide (SEQ ID NO: 3), native PSP94 (SEQ ID NO: 1) and control scrambled polypeptide PB111 was initiated and was performed once a day for 14 days by the subcutaneous route based on the treatment groups (randomly assigned) illustrated in table 5.

## polypeptide 76-94: PSP94 derived synthetic polypeptide from the carboxy terminus end, SEQ ID NO: 6 (IVVEKKDPKKTCSVSEWII; Polypeptide 76-94)
[1]
  growth inhibition of PC-3 cells (FIG. 10): significant growth inhibition
PC-3 cells [2]
  DNA laddering effect: induced a DNA laddering effect characteristic of apoptosis
PC-3 cells [3]
  apoptotic cell death effect: dose dependent increase in the apoptotic cell death effect

## decapeptide: synthetic decapeptide as set forth in SEQ ID NO: 3, mimics the biological activity of native PSP94 (YTCSVSEPGI; decapeptide)
PC-3 cells [4]; 1 μg/ml
  decrease in colony number: 40%
PC-3 cells [4]; 10 μg/ml
  decrease in colony number: up to 60%
[5]
  tumor growth (tumor volume): significant (p<0.05) tumor growth reduction

— patent US8551951B2, “Pharmaceutical preparations and methods for inhibiting tumors” (Aenorasis SA Pharmaceuticals and Medical Devices, priority 2000, dated 2013)
